Measurements as given in ChEMBL document CHEMBL1128235, “Inhibitors of HIV-1 protease containing the novel and potent (R)-(hydroxyethyl)sulfonamide isostere” (J Med Chem, 1995).

Key:
[1] = target: T1, Human immunodeficiency virus type 1 protease (Human immunodeficiency virus 1, UniProt Q72874); test: Binding affinity for HIV-1 protease was determined in vitro
[2] = test system: CCRF-CEM; test: Antiviral activity against HIVIIIB strain of HIV-1 was determined in an CEM based assay; assay type: functional, cell-based; conditions: Homo sapiens
[3] = target: T1, Human immunodeficiency virus type 1 protease; test: Binding affinity for HIV-1 protease was determined
[4] = target: T1, Human immunodeficiency virus type 1 protease; test: Ability to inhibit HIV-1 protease was determined using spectrofluorimetric assay
[5] = target: T1, Human immunodeficiency virus type 1 protease; test: Binding affinity for HIV-1 protease was determined.
[6] = target: T1, Human immunodeficiency virus type 1 protease; test: Ability to inhibit HIV-1 protease was determined using spectrofluorimetric assay.
[7] = Toxicity in CEM cells infected with HIVIIIB strain of HIV-1; assay type: cell-based; conditions: human, CEM (CCRF-CEM) cells infected with HIV-1 strain IIIB; read-out: TD50 (the source's name)
[8] = target: T1, Human immunodeficiency virus type 1 protease; test: Binding affinity for HIV-1 protease was determined in vitro.
[9] = test system: CCRF-CEM; test: Antiviral activity against HIVIIIB strain of HIV-1 was determined in an CEM based assay.; assay type: functional, cell-based; conditions: Homo sapiens

CC(C)CN(C[C@@H](O)[C@H](Cc1ccccc1)NC(=O)OCc1ccccc1)S(=O)(=O)c1ccccc1
Ki [1]: 0.0032 µM
EC50 [2]: 0.113 µM

O=C(N[C@@H](Cc1ccccc1)[C@H](O)CN(Cc1ccccc1)S(=O)(=O)c1ccccc1)OCc1ccccc1
Ki [3]: 0.125 µM
IC50 [4]: 0.19 µM

CC(C)CCN(C[C@@H](O)[C@H](Cc1ccccc1)NC(=O)[C@H](CC(N)=O)NC(=O)OCc1ccccc1)S(C)(=O)=O
Ki [3]: 0.057 µM
IC50 [4]: 0.1 µM

CC(C)CCN(C[C@@H](O)[C@H](Cc1ccccc1)NC(=O)OCc1ccccc1)S(=O)(=O)c1ccccc1Cl
Ki [5]: 0.227 µM
IC50 [6]: 0.38 µM

CC(C)CCN(C[C@H](O)[C@H](Cc1ccccc1)NC(=O)OCc1ccccc1)S(=O)(=O)c1ccccc1
Ki [5]: 0.295 µM
IC50 [6]: 0.45 µM

CC(C)CCN(C[C@@H](O)[C@H](Cc1ccccc1)NC(=O)OCc1ccccc1)S(C)(=O)=O
Ki [3]: 1.87 µM
IC50 [4]: 3.2 µM

CC(C)CCN(C[C@@H](O)[C@H](Cc1ccccc1)NC(=O)[C@H](CC(N)=O)NC(=O)c1ccc2ccccc2n1)S(C)(=O)=O
Ki [1]: 0.013 µM
EC50 [2]: 0.053 µM
CC50 [7]: 45 µM

CCCS(=O)(=O)N(CCC(C)C)C[C@@H](O)[C@H](Cc1ccccc1)NC(=O)OCc1ccccc1
Ki [5]: 0.128 µM
IC50 [6]: 0.21 µM

CC(C)CCN(C[C@@H](O)[C@H](Cc1ccccc1)NC(=O)OCc1ccccc1)S(=O)(=O)Cc1ccccc1
IC50 [6]: 10 µM

CC(C)CCN(C[C@@H](O)[C@H](Cc1ccccc1)NC(=O)OCc1ccccc1)S(=O)(=O)c1cccc(Cl)c1
Ki [5]: 0.061 µM
IC50 [6]: 0.092 µM

CC(C)CCN(C[C@@H](O)[C@H](Cc1ccccc1)NC(=O)OCc1ccccc1)S(=O)(=O)c1ccccc1
Ki [8]: 0.01 µM
CC50 [7]: 26 µM
EC50 [9]: 0.055 µM

CC(C)CCN(C[C@@H](O)[C@H](Cc1ccccc1)NC(=O)OCc1ccccc1)S(=O)(=O)c1ccc(Cl)cc1
Ki [5]: 0.0041 µM
IC50 [6]: 0.01 µM

O=C(N[C@@H](Cc1ccccc1)[C@H](O)CN(CC1CCCCC1)S(=O)(=O)c1ccccc1)OCc1ccccc1
Ki [3]: 0.0067 µM
IC50 [4]: 0.014 µM

CC(C)CCN(C[C@@H](O)[C@H](Cc1ccccc1)NC(=O)[C@H](CC(N)=O)NC(=O)c1ccc2ccccc2n1)S(=O)(=O)c1ccccc1
EC50 [2]: 0.005 µM
CC50 [7]: 203 µM

CC(C)CCN(C[C@@H](O)[C@H](Cc1ccccc1)NC(=O)[C@H](CC(N)=O)NC(=O)OCc1ccccn1)S(=O)(=O)c1ccccc1
Ki [3]: 0.0005 µM
IC50 [4]: 0.0022 µM
